Series [1] can be described thus: In vitro release behavior by dialysis in SGF (pH 1.2) and PBS (pH 7.4). The class given is physicochemical. The protocol: The release behavior of αCT and Res in vitro was investigated through dialysis. […] The release medium was SGJ (pH 1.2) containing 2% sodium dodecyl sulfate (w/v) and 30 mL PBS (pH 7.4). The release behavior of drugs from JNP was studied under the conditions of 37 ± 0.5 °C and a rotating speed of 100 rpm. At fixed time points (0, 0.25, 0.5, 0.75, 1.0, 1.5, and 2.0 h in SGJ; 0, 0.25, 0.5, 1.0, 2,0, 4.0, 6.0, 8.0, 10.0, 12.0, and 24.0 h in PBS), 1 mL of release medium was removed, and a blank release medium with the same volume and temperature was supplemented. The samples were filtered through a 0.22-μm microporous membrane, and the supernatant was obtained after high-speed centrifugation. The αCT and Res content were determined using HPLC. The cumulative release percentage was calculated, and a release curve was obtained. The formula for cumulative drug release is shown in the following equation, where Ct is the content of two drugs at each sampling point, V0 is the volume of the release medium, V is the sampling volume, and M0 is the initial dosage:3 Cumulative release%=Ct×V0+∑n=1t-1C×V/M0×100%

Series [2] has as its target T1, trypsin (Sus scrofa, UniProt P00761).
T1 construct: purchased Gibco Invitrogen Co. (Carlsbad, USA)
As to the kind of experiment: Stability in SIF containing 0.2% trypsin (residual drug content). In kind it is in vitro ADME. The conditions noted are these: SIF with 0.2% trypsin, 37 °C, first hour. On the procedure: The effect of trypsin on the stability of αCT/Res-JNPs was also evaluated. αCT/Res-JNPs were centrifuged at 20,000 rpm at 4 °C for 30 min, and then resuspended in SIF. The control group was treated with αCT solution and Res solution. SIFs and trypsin (0.2%, w/v) were mixed at 37 °C for 2 h. At predetermined time points (15, 30, 60, and 120 min), HCl solution (0.1 M) was added to terminate the trypsin activity. Subsequently, dichloromethane was added to dissolve the organic phase contained in the JNP solution. The pH of the solution was then adjusted to 4.0 using hydrochloric acid to dissolve the internal aqueous phase of the JNP. Subsequently, samples were collected, and the contents of residual αCT and Res in the JNP samples were analyzed via HPLC.

Series [3] can be described thus: in vivo. Also on record: species or system SD rats. On the procedure:
SD rats fasted but drank water freely for 24 h before administration. The dosage of JNP group was 50 µg·kg ^−1 (calculated using αCT), and the other groups were converted according to the ratio of their drug loading to αCT. After intragastric administration, blood samples were collected at 0.25, 0.5, 1, 4, 8, 12, and 24 h. […] PKSolver software (V2.0, China Pharmaceutical University, China) was used to process the data, compare the blood PK parameters of each group after administration, and generate the drug concentration–time curve.

For series [4], the system named is Caco-2 monolayers. As to the kind of experiment: Trans-monolayer transport. Particulars: Caco-2 cell model, AP to BL, 4 h. The class given is in vitro ADME. On the procedure: (§1) Caco-2, Caco-2/HT29-MTX (7/3), and Caco-2/HT29-MTX/Raji cell models were established for the trans-monolayer transport study, as previously described. The assay was carried out from the AP side (pH 6.5) to the BL side (pH 7.4) using HBSS-HEPES buffer. […] At 0, 0.5, 1, 2, and 4 h, a certain amount of sample was taken from the basolateral compartment, and the same volume of HBSS-HEPES buffer was added.
In general terms: Passage across Caco-2 layers is used to estimate intestinal permeability.

The subject of series [5] is Caco-2/HT29-MTX monolayers. In words: Trans-monolayer transport. The class given is in vitro ADME. Particulars: Caco2-HT29/MTX cell model, AP to BL, 4 h. On the procedure:
as §1

Series [6] has as its system Caco-2/HT29-MTX/Raji monolayers. As to the kind of experiment: Trans-monolayer transport. The conditions noted are these: Caco2-HT29/MTX-Raji cell model, AP to BL, 4 h. The class given is in vitro ADME. The protocol:
as §1

For series [7] the following is noted: SPIP, n = 3. On the procedure: SPIP was performed to determine the absorption and enterocytic uptake of the nanoparticles. The abdominal cavity of SD rats were opened along the midline of the abdomen to expose the intestinal tissue. The jejunum, ileum, duodenum, and colon segments were measured, and incisions were made at both ends of these segments. Both ends of the incision were intubated and fixed using ligation. The wounds were covered with an absorbent cotton soaked in normal saline and maintained at 37 °C. […] After 60 min, the jejunum, ileum, duodenum, and colon were dehydrated to create frozen Sects. (10 μm). These sections were observed using CLSM, and the fluorescence intensity of each section was quantified.

Series [8] can be described thus: Lymphatic transport in mesenteric lymph-cannulated rats. The class given is in vivo, SD rats. The protocol: The methods of mesenteric lymphatic intubation were based on previous studies. Briefly, SD rats (300–350 g) were given 2 mL peanut oil via gavage 1 h before administration to induce lymphoid production. One hour later, the animals were anesthetized via intraperitoneal injection of 50 mg·kg^−1 pentobarbital sodium. The rats were placed in the supine position on the ventral side and their limbs were fixed. A midline abdominal incision (approximately 4 cm long) was made at 2/3 of the line connecting the xiphoid and pubic symphysis. […] The trunk of the mesenteric lymphatic vessels (approximately 1 cm) was then separated. A 4-mm PE-25 pipe with a PE-50 hose was connected, the joint of each pipe was fully fixed, and the pipe was filled with 1% EDTA-2Na. […] A small incision was made in the mesenteric lymphatic vessel, and the PE-25 tube end was intubated. When the lymphatic fluid completely filled the tube and drained smoothly, the intubation site was fixed. After resuscitation, the rats were allowed to drink 5% glucose solution freely and recover overnight.

The conditions of series [9]: humans and animals; cited from earlier work.
The subject of series [10] is Caco-2 cells. As to the kind of experiment: Mechanism of cell uptake with specific endocytosis inhibitors (flow cytometry). The class given is cell-based. The conditions noted are these: inhibitor 0.5 h, then FITC-αCT-JNP or FITC-αCT/Res-JNP 2 h; uptake without inhibitor = 100%. On the procedure: The mechanism of cell uptake was also investigated. Caco-2 cells in the logarithmic growth phase were seeded in 6-well plates at 3 × 10^5 cells/well and incubated for 48 h. Chlorpromazine (10 μg/mL), genistein (54 μg/mL), amiloride (12 μg/mL), and nocodazole (300 μg/mL) were added to the individual wells as inhibitors and were incubated for 0.5 h. FITC-αCT-JNP and FITC-αCT/Res-JNP were then added and the wells were incubated for another 2 h. The cells were then collected using trypsin and centrifuged at 1000 rpm for 5 min. Cells without any inhibitors were used as controls. Fluorescence intensity was detected using flow cytometry (FACSJazz, BD, USA).
(In general: A flow cytometer gives signals particle by particle.)

For series [11], the system named is Caco-2 cells. In words: Cellular uptake of FITC-αCT observed by CLSM. The class given is cell-based. Particulars: 6 h incubation, 1:20 dilution. The protocol: (§2) Cell culture was carried out according to previously described procedures. HT-29/MTX and Caco-2 cells were seeded into 24-well plates at a density of 1 × 10^5 cells/well and 6 × 10^4 cells/well, respectively. After the cells adhered onto each well, the culture medium was discarded, and three types of samples (FITC-αCT, FITC-αCT-JNP, or FITC-αCT/Res-JNP) at 1:20 dilutions were added. After 6 h, the liquid in the wells was discarded, and the cells were washed with PBS. Each well was fixed with 4% (v/v) paraformaldehyde (0.5 mL) for 20 min, and rinsed with PBS. The cells were then incubated with 0.1% Triton X-100 for 10 min to permeabilize the cell membrane, and then incubated with DAPI for 10 min. After sealing, it was observed using CLSM.

Series [12] deals with HT29/MTX cells. As to the kind of experiment: Cellular uptake of FITC-αCT observed by CLSM. In kind it is cell-based. The conditions noted are these: 6 h incubation, 1:20 dilution. The protocol: as §2
Series [13] has as its system animal models. The conditions noted are these: cited from earlier work.
The mark [14] stands for this setting: PBS pH 7.4, time point not stated.
The mark [15] stands for this setting: Sprague-Dawley, rat, in vivo, po.
Where [16] appears, read: rats, intragastric, 50 µg·kg^−1 as αCT, plasma FITC-αCT, n = 5.

Where two headings read alike, the source gives them in different places.

Results on seven molecules are retold here after paper PMC8348996, “pH-sensitive dual drug loaded janus nanoparticles by oral delivery for multimodal analgesia” (Journal of Nanobiotechnology, 2021).

T1 sequence (P00761 9-231): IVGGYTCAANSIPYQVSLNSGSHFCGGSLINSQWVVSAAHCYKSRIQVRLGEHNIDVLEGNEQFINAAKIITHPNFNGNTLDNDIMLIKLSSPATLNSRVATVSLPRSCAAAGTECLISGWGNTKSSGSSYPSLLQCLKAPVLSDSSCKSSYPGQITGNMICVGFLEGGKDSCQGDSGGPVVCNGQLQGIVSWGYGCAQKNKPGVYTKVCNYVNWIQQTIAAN

As usually defined, the AUC(0-t) is the area under the concentration-time curve up to a stated or last time point. What is called Cmax is the peak of the concentration-time curve. Usually MRT last stands for the average time that molecules of a dose stay in the body. What is called half-life is the time in which the quantity being followed falls by half. The low end stands for fast loss, the high end for slow loss. A word on the Tmax: it is the time from dosing to the highest level. For `Oc1ccc(/C=C/c2cc(O)cc(O)c2)cc1` [Res, Resveratrol], the “release of Res in PBS” value in series [1] (setting [14]) is 86.71%. Besides, in series [1] (SGF pH 1.2 with 2% sodium dodecyl sulfate, within 1 h), the “release rate of Res” value amounted to 93.76%. For the same molecule, the “residual amount of Res” value in series [2] was 47.23%. In series [3] (setting [15]), this molecule showed an AUC(0-t) of 84.6 ± 3.8 ng·h/mL, a Cmax of 92.1 ± 8 ng/mL, an MRT last of 1.56 ± 0.52 h and a half-life of 1.09 ± 0.07 h. Besides, in series [3] (Sprague-Dawley, rat, in vivo, po, time of peak concentration of Res, rats, intragastric), the Tmax is 0.167 h. Also, the “AUMCt of Res” value in [3] (rats, intragastric, plasma Res, n = 5) is reported as 118.18 ± 19.08 ng/ml*h^2. The “cumulative transport of Res” value in series [4] is “approximately 14%”. Also, the cumulative transport entry in series [5] is “approximately 6%”. Further, the cumulative transport result in series [6] is “approximately 14%”. In addition, in series [7] (colon), the “Ka of Res” value was 1.01 ± 0.26 × 10^–2 min^−1 and the “Peff of Res” value is 1.60 ± 0.44 × 10^–3 cm·min^−1. Besides, in [7] (duodenum), the “Ka of Res” value is on record as 0.99 ± 0.11 × 10^–2 min^−1 and the “Peff of Res” value is on record as 1.58 ± 0.18 × 10^–3 cm·min^−1. For the same molecule, in [7] (ileum), the “Ka of Res” value was 1.91 ± 0.66 × 10^–2 min^−1 and the “Peff of Res” value is reported as 3.26 ± 1.26 × 10^–3 cm·min^−1. In addition, in series [7] (jejunum), the “Ka of Res” value is on record as 1.55 ± 0.26 × 10^–2 min^−1 and the “Peff of Res” value is recorded as 2.57 ± 0.46 × 10^–3 cm·min^−1. Further, in series [8], the “time after which Res was no longer detected in lymph” value amounted to 4 h. In addition, in series [9], the oral bioavailability result is given as “almost zero”.
Take `N=C(N)NC(=O)c1nc(Cl)c(N)nc1N` [amiloride]: the “effect of endocytosis inhibitor on uptake rate of JNP by Caco-2 cells” value in [10] is listed as “significantly reduced the uptake rate of JNP”.
Turning to `CN(C)CCCN1c2ccccc2Sc2ccc(Cl)cc21` [chlorpromazine], in [10], the “effect of endocytosis inhibitor on uptake rate of JNP by Caco-2 cells” value is “significantly reduced the uptake rate of JNP”.
On the same count and under the same terms, the result for `O=c1c(-c2ccc(O)cc2)coc2cc(O)cc(O)c12` [genistein] reads “did not significantly inhibit the cellular uptake of JNP”; that for `COC(=O)Nc1nc2ccc(C(=O)c3cccs3)cc2[nH]1` [nocodazole], “did not significantly inhibit the cellular uptake of JNP”.
Turning to “FITC-αCT: αCT labeled with fluorescein isothiocyanate (FITC)”, the “cellular uptake of FITC-αCT (green fluorescence, CLSM)” value in series [11] and in series [12] was “no obvious green fluorescence” each time. Moreover, the “cumulative transport of FITC-αCT” value in series [4] was “approximately 3%”. The cumulative transport result in series [5] and in [6] was “approximately 4%” throughout.
For the molecule α-Cobrotoxin [αCT], in [1] (setting [14]), the “release of αCT in PBS” value is 67.89%. Moreover, the “cumulative release of αCT” value in series [1] (SGF pH 1.2, 2 h, 37 °C) was “approximately 40.17%”. The “residual amount of αCT” value in series [2] came out at 25.60%. Also, in series [3] (rats, intragastric), the “t1/2 of αCT” value is recorded as 0.17 ± 0.03 h and the “time of peak concentration of αCT” value is reported as “about 30 min”. In series [3] (setting [16]), the “AUCt of αCT” value amounted to 67.65 ± 17.91 ng·h/mL, the “AUMCt of αCT” value is 112.44 ± 12.97 ng/ml*h^2, the “Cmax of αCT” value turned out to be 26.85 ± 3.00 ng/mL and the “Tmax of αCT” value is 0.5 h. For the same molecule, the “t1/2β of αCT” value in [3] (setting [16]) is listed as 2.69 ± 0.36 h. Further, in series [7] (colon), the “Ka of αCT” value is 0.85 ± 0.14 × 10^–2 min^−1 and the “Peff of αCT” value is recorded as 1.34 ± 0.23 × 10^–3 cm·min^−1. In series [7] (duodenum), the “Ka of αCT” value is 0.81 ± 0.11 × 10^–2 min^−1 and the “Peff of αCT” value was 1.27 ± 0.19 × 10^–3 cm·min^−1. Besides, in series [7] (ileum), the “Ka of αCT” value is 0.91 ± 0.03 × 10^–2 min^−1 and the “Peff of αCT” value is listed as 1.44 ± 0.05 × 10^–3 cm·min^−1. Besides, in series [7] (jejunum), the “Ka of αCT” value was 0.98 ± 0.05 × 10^–2 min^−1 and the “Peff of αCT” value was 1.56 ± 0.10 × 10^–3 cm·min^−1. Besides, the “time after which αCT was no longer detected in lymph” value in series [8] is 6 h. In addition, in [13] (high dose 100 μg·kg^−1, intraperitoneal injection), the “effect on pain sensitivity” value was “significantly enhance pain sensitivity”. In series [13] (low dose, animal models), the “effect on pain threshold and action ability” value is “improve the pain threshold and action ability”.
